Experimental data published in ChEMBL document CHEMBL1128806, “Phosphodiesterase type IV (PDE IV) inhibition. Synthesis and evaluation of a series of 1,3,4-trisubstituted pyrrolidines” (Bioorg Med Chem Lett, 1995).

Biological target: T1, 3',5'-cyclic-AMP phosphodiesterase 4B (Homo sapiens, UniProt Q07343)
Test: Inhibition of rolipram binding to Phosphodiesterase 4B

T1 sequence (Q07343 whole entry): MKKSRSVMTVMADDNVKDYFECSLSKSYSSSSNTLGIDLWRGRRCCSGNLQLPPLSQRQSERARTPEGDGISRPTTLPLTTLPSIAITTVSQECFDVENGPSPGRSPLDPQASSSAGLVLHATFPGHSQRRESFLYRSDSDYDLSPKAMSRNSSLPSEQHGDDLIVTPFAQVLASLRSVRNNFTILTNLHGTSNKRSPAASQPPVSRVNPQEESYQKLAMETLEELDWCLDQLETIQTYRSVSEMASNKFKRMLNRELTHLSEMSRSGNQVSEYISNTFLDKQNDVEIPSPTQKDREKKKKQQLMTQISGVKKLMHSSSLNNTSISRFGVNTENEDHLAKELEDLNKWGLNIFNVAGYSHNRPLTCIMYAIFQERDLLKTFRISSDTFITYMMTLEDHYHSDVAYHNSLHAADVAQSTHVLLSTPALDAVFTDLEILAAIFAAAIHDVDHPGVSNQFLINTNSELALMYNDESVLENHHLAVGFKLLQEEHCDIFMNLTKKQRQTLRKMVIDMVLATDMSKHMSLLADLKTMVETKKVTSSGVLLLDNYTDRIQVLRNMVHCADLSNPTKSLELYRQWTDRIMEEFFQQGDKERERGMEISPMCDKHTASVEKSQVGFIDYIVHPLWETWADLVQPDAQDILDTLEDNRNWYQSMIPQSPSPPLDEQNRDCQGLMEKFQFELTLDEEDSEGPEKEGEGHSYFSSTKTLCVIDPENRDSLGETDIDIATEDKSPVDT

Row | IC50 [nM] | SMILES
1 | 320 | COC(=O)N1C[C@@H](C(C)=O)[C@H](c2ccc(OC)c(OC3CCCC3)c2)C1

Biological target: T1, 3',5'-cyclic-AMP phosphodiesterase 4B
Test: Ability to inhibit the catalytic activity of human Phosphodiesterase 4B (PDE IVB)

Row | Ki [nM] | SMILES
2 | 1880 | COC(=O)N1C[C@@H](C(=O)O)[C@H](c2ccc(OC)c(OC3CCCC3)c2)C1
3 | 60 | COC(=O)N1C[C@@H]([N+](=O)[O-])[C@H](c2ccc(OC)c(OC3CCCC3)c2)C1
4 | 240 | COC(=O)[C@@H]1CN(C(=O)OC(C)(C)C)C[C@H]1c1ccc(OC)c(OCCCOc2ccccc2)c1
5 | 1570 | COC(=O)N1C[C@@H](C(N)=O)[C@H](c2ccc(OC)c(OC3CCCC3)c2)C1
6 | 50 | COc1ccc([C@@H]2CN(C(=O)OC(C)(C)C)C[C@H]2CO)cc1OC1CCCC1
7 | 1480 | COC(=O)[C@@H]1CN(C(N)=O)C[C@H]1c1ccc(OC)c(OC2CCCC2)c1
8 | 1470 | COc1ccc([C@@H]2CN(C(=O)OCc3ccccc3)C[C@H]2NS(C)(=O)=O)cc1OC1CCCC1
9 | 550 | CCOC(=O)[C@@H]1CN(C(=O)OC)C[C@H]1c1ccc(OC)c(OC2CCCC2)c1
10 | 6030 | COC(=O)N1C[C@@H](C(=O)c2ccccc2)[C@H](c2ccc(OC)c(OC3CCCC3)c2)C1
11 | 290 | COc1ccc([C@@H]2CN(C(=O)OCc3ccccc3)C[C@H]2NC(=O)OC(C)(C)C)cc1OC1CCCC1
12 | 14400 | COC(=O)N1C[C@@H](NC(=O)OC(C)(C)C)[C@H](c2ccc(OC)c(OC3CCCC3)c2)C1
13 | 160 | COC(=O)[C@@H]1CN(C(=O)OC)C[C@H]1c1ccc(OC)c(OC2CCCC2)c1
14 | 810 | COC(=O)[C@@H]1CN(C=O)C[C@H]1c1ccc(OC)c(OC2CCCC2)c1
15 | 40 | COC(=O)[C@@H]1CN(C(=O)OC(C)C)C[C@H]1c1ccc(OC)c(OC2CCCC2)c1
16 | 1200 | COC(=O)[C@@H]1CN(C(=O)OC(C)(C)C)C[C@H]1c1ccc(OC)c(OC)c1
17 | 4420 | COc1ccc([C@@H]2CN(C(=O)OCc3ccccc3)C[C@H]2NS(=O)(=O)c2ccccc2)cc1OC1CCCC1
18 | 190 | COc1ccc([C@@H]2CN(C(=O)OC(C)(C)C)C[C@H]2C(N)=O)cc1OC1CCCC1
19 | 150 | COc1ccc([C@@H]2CN(C(=O)OC(C)(C)C)C[C@H]2C(=O)O)cc1OC1CCCC1
20 | 30 | COC(=O)N1C[C@@H](C(C)=O)[C@H](c2ccc(OC)c(OC3CCCC3)c2)C1
21 | 4630 | COC(=O)N1C[C@@H](C(=O)OC(C)(C)C)[C@H](c2ccc(OC)c(OC3CCCC3)c2)C1
22 | 2290 | COC(=O)N1C[C@@H](C(=O)OC(C)C)[C@H](c2ccc(OC)c(OC3CCCC3)c2)C1
23 | 380 | COC(=O)[C@@H]1CN(C(N)=S)C[C@H]1c1ccc(OC)c(OC2CCCC2)c1
24 | 50 | COC(=O)[C@@H]1CN(C(=O)OCc2ccccc2)C[C@H]1c1ccc(OC)c(OC2CCCC2)c1
25 | 1130 | CCC(=O)N1C[C@@H](C(=O)OC)[C@H](c2ccc(OC)c(OC3CCCC3)c2)C1
26 | 80 | COC(=O)N1C[C@@H](C#N)[C@H](c2ccc(OC)c(OC3CCCC3)c2)C1
27 | 80 | COC[C@@H]1CN(C(=O)OC(C)(C)C)C[C@H]1c1ccc(OC)c(OC2CCCC2)c1
28 | 30 | COC(=O)[C@@H]1CN(C(=O)OC(C)(C)C)C[C@H]1c1ccc(OC)c(OC2CCCC2)c1
29 | 350 | CCC(=O)[C@@H]1CN(C(=O)OC)C[C@H]1c1ccc(OC)c(OC2CCCC2)c1
30 | 1570 | COc1ccc([C@@H]2CN(C(=O)OC(C)(C)C)C[C@H]2NC(=O)OC(C)(C)C)cc1OC1CCCC1

System: not listed separately
Test: Inhibition of TNF-alpha secretion from LPS-stimulated human monocytes
Assay type: functional

Row | IC50 [nM] | SMILES
31 | 320 | COc1ccc(C2CNC(=O)C2)cc1OC1CCCC1 (configuration not stated) [ROLIPRAM]
32 | 457 | COC(=O)N1C[C@@H](C(C)=O)[C@H](c2ccc(OC)c(OC3CCCC3)c2)C1
